Counter-ions that a name gives are not always drawn. Like-named read-outs stand apart in the source and are kept apart here.
Experiments:
PDE4 = PDE4 (Homo sapiens, UniProt Q08499); assay: In-vitro assay for PDE4 enzymes, real-time enzyme-coupled spectrophotometric assay (Table 9); assay type: biochemical
PDE4B = PDE4B (Homo sapiens, UniProt Q07343); assay: In-vitro assay for PDE4 enzymes, real-time enzyme-coupled spectrophotometric assay, PDE4B Activity (Table 10); assay type: biochemical
[1] = human PDE4D, activity class, Table 9, read-out: hPDE4D
[2] = human PDE4B (hPDE4B), enzyme-coupled spectrophotometric assay, read-out: PDE4B Activity, hPDE4B

Sequence of PDE4B (Q07343 whole entry): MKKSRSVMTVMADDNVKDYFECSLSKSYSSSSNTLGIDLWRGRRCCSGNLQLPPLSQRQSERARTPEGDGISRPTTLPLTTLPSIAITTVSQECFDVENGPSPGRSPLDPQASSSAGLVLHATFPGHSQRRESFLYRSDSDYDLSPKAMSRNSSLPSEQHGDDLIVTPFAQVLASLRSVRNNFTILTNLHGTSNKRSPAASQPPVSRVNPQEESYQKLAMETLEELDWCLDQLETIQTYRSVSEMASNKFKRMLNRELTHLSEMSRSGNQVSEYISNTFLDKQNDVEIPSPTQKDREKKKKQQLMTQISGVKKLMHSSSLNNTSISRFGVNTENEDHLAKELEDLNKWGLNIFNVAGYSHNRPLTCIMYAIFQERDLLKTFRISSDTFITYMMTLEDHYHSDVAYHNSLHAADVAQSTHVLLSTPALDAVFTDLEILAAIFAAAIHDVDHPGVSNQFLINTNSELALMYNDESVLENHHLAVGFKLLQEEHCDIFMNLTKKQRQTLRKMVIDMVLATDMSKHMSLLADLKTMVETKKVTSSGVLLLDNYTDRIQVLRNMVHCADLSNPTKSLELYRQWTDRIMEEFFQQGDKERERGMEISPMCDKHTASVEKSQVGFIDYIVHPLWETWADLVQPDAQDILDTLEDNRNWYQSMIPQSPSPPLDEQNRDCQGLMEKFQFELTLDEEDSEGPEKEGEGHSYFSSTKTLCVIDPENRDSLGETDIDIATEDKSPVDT
Sequence of PDE4 (Q08499 whole entry): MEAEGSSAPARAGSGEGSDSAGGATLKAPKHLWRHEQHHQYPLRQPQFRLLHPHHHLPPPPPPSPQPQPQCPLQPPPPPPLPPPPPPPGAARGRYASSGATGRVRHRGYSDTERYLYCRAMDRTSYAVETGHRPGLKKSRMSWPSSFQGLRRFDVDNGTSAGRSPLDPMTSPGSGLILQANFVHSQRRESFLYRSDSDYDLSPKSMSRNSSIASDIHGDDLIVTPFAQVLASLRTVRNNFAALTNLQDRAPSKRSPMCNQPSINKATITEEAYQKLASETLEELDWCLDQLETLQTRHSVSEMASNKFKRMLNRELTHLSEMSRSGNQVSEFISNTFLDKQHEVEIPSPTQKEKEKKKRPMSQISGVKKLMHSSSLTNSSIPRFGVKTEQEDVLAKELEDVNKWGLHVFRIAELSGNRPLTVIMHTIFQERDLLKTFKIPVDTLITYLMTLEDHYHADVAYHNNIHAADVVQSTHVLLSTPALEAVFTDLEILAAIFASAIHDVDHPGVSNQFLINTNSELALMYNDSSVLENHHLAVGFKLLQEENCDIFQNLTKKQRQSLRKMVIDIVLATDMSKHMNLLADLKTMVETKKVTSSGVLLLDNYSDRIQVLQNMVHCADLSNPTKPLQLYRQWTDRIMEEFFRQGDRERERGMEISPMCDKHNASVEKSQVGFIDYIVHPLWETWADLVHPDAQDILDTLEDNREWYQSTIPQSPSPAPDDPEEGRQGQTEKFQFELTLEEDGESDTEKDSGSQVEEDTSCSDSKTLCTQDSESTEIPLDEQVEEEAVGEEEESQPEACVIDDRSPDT

| SMILES | IC50 (PDE4; [1]) [µM] | IC50 (PDE4B; [2]) [µM] | IC50 (PDE4) [µM] | IC50 (PDE4B) [µM] |
| --- | --- | --- | --- | --- |
| COc1ccc(Cc2ccc(OCCN(C)C)nc2)c(O)c1-c1cccc([N+](=O)[O-])c1 [P-150] | 5 to 20 | 5 to 20 | – | – |
| COc1ccc(Cc2ccc(NC(N)=O)c(O)c2)c(F)c1-c1cccc(Cl)c1 [P-262] | < 5 | < 5 | – | – |
| COc1ccc(Cn2ccc(C#N)cc2=O)cc1-c1cccc([N+](=O)[O-])c1 [P-196, 1-(6-Methoxy-3′-nitro-biphenyl-3-ylmethyl)-2-oxo-1,2-dihydro-pyridine-4-carbonitrile] | < 5 | 5 to 20 | – | – |
| CCNC(=O)N1CCC[C@@H]1COc1ccc(Cc2ccc(OC)c(-c3cccc(Cl)c3)c2F)cn1 [P-533, (R)-2-[5-(3′-Chloro-2-fluoro-6-methoxy-biphenyl-3-ylmethyl)-pyridin-2-yloxymethyl]-pyrrolidine-1-carboxylic acid ethylamide] | < 5 | < 5 | – | – |
| CCNC(=O)Nc1nnc(Cc2ccc(OC)c(-c3cccc(Cl)c3)c2F)s1 [P-343, 1-[5-(3′-Chloro-2-fluoro-6-methoxy-biphenyl-3-ylmethyl)-[1,3,4]thiadiazol-2-yl]-3-ethyl-urea] | < 5 | < 5 | – | – |
| O=[N+]([O-])c1cccc(-c2c(O)ccc(Cc3ccc(F)cc3)c2F)c1 [P-451] | < 5 | < 5 | – | – |
| COc1ccc(Cc2cccc(N)c2)c(F)c1-c1cccc(Cl)c1 [P-234] | < 5 | < 5 | – | – |
| NC(=O)Nc1ccc(Cc2ccc(O)c(-c3cccc([N+](=O)[O-])c3)c2F)cc1 [P-508] | < 5 | 5 to 20 | – | – |
| COc1ccc(CN2CCN(C(N)=O)CC2)c(F)c1-c1cccc(Cl)c1 [P-370] | < 5 | 5 to 20 | – | – |
| CCNc1ccc(Cc2ccc(OC)c(-c3cccc(Cl)c3)c2F)cn1 [P-318] | < 5 | < 5 | – | – |
| COc1ccc(Cc2ccc(CNC(N)=O)nc2)c(F)c1-c1cccc(Cl)c1 [P-368, [5-(3′-Chloro-2-fluoro-6-methoxy-biphenyl-3-ylmethyl)-pyridin-2-ylmethyl]-urea] | < 5 | < 5 | – | – |
| COc1ccc(Cn2cncn2)cc1-c1cccc(F)c1 [P-058, 1-(3′-Fluoro-6-methoxy-biphenyl-3-ylmethyl)-1H-[1,2,4]triazole] | < 5 | 5 to 20 | – | – |
| COc1ccc(Cn2ccnc2)cc1-c1ccc2nonc2c1 [P-006, 5-(5-Imidazol-1-ylmethyl-2-methoxy-phenyl)-benzo[1,2,5]oxadiazole] | < 5 | < 5 | – | – |
| COc1ccc(Cc2cnc(N)nc2)c(F)c1-c1cccc(Cl)c1 [P-278] | < 5 | < 5 | – | – |
| COc1ccc(Cc2ccnc(CN)c2)c(F)c1-c1cccc(Cl)c1 [P-437, C-[4-(3′-Chloro-2-fluoro-6-methoxy-biphenyl-3-ylmethyl)-pyridin-2-yl]-methylamine] | < 5 | < 5 | – | – |
| COc1ccc(Cn2cncc2CO)cc1-c1cccc([N+](=O)[O-])c1 [P-153, [3-(6-Methoxy-3′-nitro-biphenyl-3-ylmethyl)-3H-imidazol-4-yl]-methanol] | < 5 | 5 to 20 | – | – |
| COc1ccc(Nc2ccc(NS(C)(=O)=O)cc2)cc1-c1cccc(C(C)=O)c1 [P-267, N-[4-(3′-Acetyl-6-methoxy-biphenyl-3-ylamino)-phenyl]-methanesulfonamide] | < 5 | < 5 | – | – |
| COc1ccc(Cc2ccc(F)c(CO)c2)cc1-c1cccc([N+](=O)[O-])c1 [P-135] | < 5 | < 5 | – | – |

| SMILES | IC50 (PDE4; [1]) [µM] | IC50 (PDE4B; [2]) [µM] | IC50 (PDE4) [µM] | IC50 (PDE4B) [µM] |
| --- | --- | --- | --- | --- |
| [2H]C(O)(c1ccc(NC(N)=O)cc1)c1ccc(OC)c(-c2cccc(Cl)c2)c1F (stereo not drawn) [P-539, {4-[(3′-chloro-2-fluoro-6-methoxy-biphenyl-3-yl)-hydroxy-deutero-methyl]-phenyl}-urea] | < 5 | 21 to 40 | – | – |
| Nc1ccc(Cc2ccc(OC(F)F)c(-c3cccc(Cl)c3)c2)cn1 [P-611, 5-(3′-Chloro-6-difluoromethoxy-biphenyl-3-ylmethyl)-pyridin-2-ylamine hydrochloride] | < 5 | < 5 | – | – |
| COc1ccc(CN2C(=O)c3ccccc3C2=O)cc1-c1cccc([N+](=O)[O-])c1 [P-042, 2-(6-Methoxy-3′-nitro-biphenyl-3-ylmethyl)-isoindole-1,3-dione] | < 5 | 5 to 20 | – | – |
| Nc1ccc(Cc2ccc(OC3COC3)c(-c3cccc(Cl)c3)c2)cc1 [P-562, 4-[3′-Chloro-6-(oxetan-3-yloxy)-biphenyl-3-ylmethyl]-phenylamine] | < 5 | < 5 | – | – |
| COc1ccc(Cn2cnc(-c3cccnc3)c2)c(F)c1-c1cccc(Cl)c1 [P-479, 3-[1-(3′-Chloro-2-fluoro-6-methoxy-biphenyl-3-ylmethyl)-1H-imidazol-4-yl]-pyridine] | < 5 | 5 to 20 | – | – |
| COc1ccc(Cc2ccc(CN3CCOC3=O)nc2)c(F)c1-c1cccc(Cl)c1 [P-465, 3-[5-(3′-Chloro-2-fluoro-6-methoxy-biphenyl-3-ylmethyl)-pyridin-2-ylmethyl]-oxazolidin-2-one hydrochloride] | < 5 | < 5 | – | – |
| [2H]C([2H])(c1ccc(NC(N)=O)cc1)c1ccc(OC)c(-c2cccc(Cl)c2)c1 [P-547, {4-[Bisduetero-(3′-chloro-6-methoxy-biphenyl-3-yl)-methyl]-phenyl}-urea] | < 5 | < 5 | – | – |
| COc1ccc(Cn2ccnc2-c2cccs2)c(F)c1-c1cccc(Cl)c1 [P-559, 1-(3′-Chloro-2-fluoro-6-methoxy-biphenyl-3-ylmethyl)-2-thiophen-2-yl-1H-imidazole hydrochloride salt] | < 5 | < 5 | – | – |
| COc1ccc(Cc2ccc(NC(N)=O)cc2)c(F)c1-c1cccc([N+](=O)[O-])c1 [P-181] | < 5 | < 5 | – | – |
| COc1ccc(Cc2cnc(NC(N)=O)nc2)c(F)c1-c1cccc(Cl)c1 [P-291] | < 5 | < 5 | – | – |
| COc1ccc(Cc2ccc(N)cc2)c(F)c1-c1cccc(Br)c1 [P-453] | < 5 | < 5 | – | – |
| COc1ccc(Cc2ccc3c(c2)OCO3)nc1-c1cccc([N+](=O)[O-])c1 [P-021, 6-benzo[1,3]dioxol-5-ylmethyl-3-methoxy-2-(3-nitro-phenyl)-pyridine] | < 5 | 5 to 20 | – | – |
| COc1ccc(Cc2ccc(N)nc2)c(F)c1-c1cccc(Cl)c1 [P-252, 5-(3′-Chloro-2-fluoro-6-methoxy-biphenyl-3-ylmethyl)-pyridin-2-ylamine] | < 5 | < 5 | – | – |
| COc1ccc(Cc2ccc(NC(C)=O)nc2)c(F)c1-c1cccc(C(C)=O)c1 [P-345] | < 5 | < 5 | – | – |
| COc1ccc(Cc2cccc(OC(N)=O)c2)c(F)c1-c1cccc(Cl)c1 [P-222] | – | – | < 5 | < 5 |
| COc1ccc(Cc2ccc(NC(C)=O)cc2)c(O)c1-c1cccc([N+](=O)[O-])c1 [P-190, N-[4-(2-Hydroxy-6-methoxy-3′-nitro-biphenyl-3-ylmethyl)-phenyl]-acetamide] | < 5 | < 5 | – | – |
| COc1ccc(Cc2cccc(N)c2)cc1-c1cccc(Cl)c1 [P-255, 3-(3′-Chloro-6-methoxy-biphenyl-3-ylmethyl)-phenylamine] | < 5 | < 5 | – | – |
| COc1ccc(Cc2ccc(C(N)=O)nc2)c(F)c1-c1cccc(C#N)c1 [P-415, 5-(3′-Cyano-2-fluoro-6-methoxy-biphenyl-3-ylmethyl)-pyridine-2-carboxylic acid amide] | < 5 | < 5 | – | – |

— patent publication US8791267B2, “Biaryl PDE4 inhibitors for treating inflammatory, cardiovascular and CNS disorders” (Decode Genetics EHF, priority 2007, dated 2014)
